Columns and labels:
ALK = target: T1, ALK (Homo sapiens, UniProt Q9UM73); experiment: ALK in vitro enzymatic assay (radioisotope P81 filter-binding, Reaction Biology); format: biochemical; settings: 20 μM ATP; ten-dose IC50 mode, duplicate, average
T1 construct: purchased Reaction Biology Corporation

HDAC6 = target: T2, HDAC6 (Homo sapiens, UniProt Q9UBN7); experiment: HDAC inhibition assay (fluorogenic peptide, Reaction Biology); format: biochemical; settings: tested once, ten-dose starting at 30 µM
T2 construct: purchased Reaction Biology Corporation; host or cells: baculovirus expression system in SF9 cells
T2 sequence (Q9UBN7 1-1215): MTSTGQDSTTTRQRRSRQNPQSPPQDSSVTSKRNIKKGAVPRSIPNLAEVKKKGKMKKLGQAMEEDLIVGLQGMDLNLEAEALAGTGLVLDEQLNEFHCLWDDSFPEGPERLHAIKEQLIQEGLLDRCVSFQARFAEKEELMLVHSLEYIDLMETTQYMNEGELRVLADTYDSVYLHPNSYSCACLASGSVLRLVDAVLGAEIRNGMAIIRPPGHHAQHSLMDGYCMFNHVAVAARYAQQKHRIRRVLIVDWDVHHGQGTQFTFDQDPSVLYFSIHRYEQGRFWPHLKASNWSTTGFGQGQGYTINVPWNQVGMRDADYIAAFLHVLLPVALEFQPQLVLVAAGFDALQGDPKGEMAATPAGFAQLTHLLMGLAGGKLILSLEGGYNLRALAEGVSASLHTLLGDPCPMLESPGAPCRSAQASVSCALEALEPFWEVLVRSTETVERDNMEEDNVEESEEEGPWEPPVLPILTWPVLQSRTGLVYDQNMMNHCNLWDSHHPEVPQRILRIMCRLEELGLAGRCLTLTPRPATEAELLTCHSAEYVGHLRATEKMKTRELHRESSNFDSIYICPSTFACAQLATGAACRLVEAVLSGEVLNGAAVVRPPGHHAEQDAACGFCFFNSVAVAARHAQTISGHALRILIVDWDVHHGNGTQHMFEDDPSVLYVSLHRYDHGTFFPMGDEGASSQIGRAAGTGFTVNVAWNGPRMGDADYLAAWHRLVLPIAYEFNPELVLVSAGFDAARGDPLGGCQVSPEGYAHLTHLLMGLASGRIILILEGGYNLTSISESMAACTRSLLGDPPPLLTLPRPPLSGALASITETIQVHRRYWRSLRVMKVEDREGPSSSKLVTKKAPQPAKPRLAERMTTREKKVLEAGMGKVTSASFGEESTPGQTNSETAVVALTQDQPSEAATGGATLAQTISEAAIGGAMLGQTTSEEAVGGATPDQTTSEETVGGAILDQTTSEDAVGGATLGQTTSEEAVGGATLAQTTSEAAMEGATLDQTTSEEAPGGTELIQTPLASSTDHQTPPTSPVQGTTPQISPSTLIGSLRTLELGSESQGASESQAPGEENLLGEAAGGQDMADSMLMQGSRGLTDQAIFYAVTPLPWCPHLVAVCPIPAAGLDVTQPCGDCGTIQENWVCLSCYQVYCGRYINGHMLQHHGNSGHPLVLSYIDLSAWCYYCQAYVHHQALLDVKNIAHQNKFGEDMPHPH

U87MG = experiment: SRB antiproliferation assay; format: cell-based; settings: Homo sapiens, U-87 MG, 48 h, read-out: Antiproliferative activity (IC50) U87MG
VEGFR2 = target: T3, VEGFR2 (Homo sapiens, UniProt P35968); experiment: RTK in vitro enzymatic assay; format: biochemical; settings: 20 μM ATP
T3 construct: purchased Reaction Biology Corporation

c-Src = target: T4, c-Src (Homo sapiens, UniProt P12931); experiment: RTK in vitro enzymatic assay; format: biochemical; settings: 20 μM ATP
T4 construct: purchased Reaction Biology Corporation

JAK2 = target: T5, JAK2 (Homo sapiens, UniProt O60674); experiment: RTK in vitro enzymatic assay; format: biochemical; settings: 20 μM ATP
T5 construct: purchased Reaction Biology Corporation

ALK C1156Y = target: T6, ALK C1156Y (Homo sapiens, UniProt Q9UM73, C1156Y); experiment: ALK mutant in vitro enzymatic assay; format: biochemical; settings: 20 μM ATP
T6 construct: purchased Reaction Biology Corporation

ALK F1174L = target: T7, ALK F1174L (Homo sapiens, UniProt Q9UM73, F1174L); experiment: ALK mutant in vitro enzymatic assay; format: biochemical; settings: 20 μM ATP
T7 construct: purchased Reaction Biology Corporation

ALK G1202R = target: T8, ALK G1202R (Homo sapiens, UniProt Q9UM73, G1202R); experiment: ALK mutant in vitro enzymatic assay; format: biochemical; settings: 20 μM ATP
T8 construct: purchased Reaction Biology Corporation

ALK G1269A = target: T9, ALK G1269A (Homo sapiens, UniProt Q9UM73, G1269A); experiment: ALK mutant in vitro enzymatic assay; format: biochemical; settings: 20 μM ATP
T9 construct: purchased Reaction Biology Corporation

[1] = test system: acetylation level of α-tubulin, a substrate of HDAC6; experiment: Western blot of acetylated α-tubulin in H2228 cells; format: cell-based, human; settings: 6 h, 3b 2 µM
Description: Figure 4. Effect of test compounds on H2228 cells. […] (A) Western blots of phosphorylated tyrosine residue 1640 on ALK as well as acetylated (Ac) α-tubulin and histone H3 with their corresponding total proteins for normalisation. GAPDH was used as a loading control. (B) Quantification of western blotting results using Image J. Error bars indicate ± S.D.E. *p-Value ≤ 0.05, **p-value ≤ 0.01, ***p-value ≤ 0.001.
Treated cells were washed three times with ice-cold phosphate-buffered saline and lysed in lysis buffer containing 100 mM Tris-HCl, 12 mM sodium deoxycholate, 12 mM sodium lauroylsarcosinate, and protease inhibitor cocktail (BioTools). Cells were heated in lysis buffer at 95 °C for 5 min and then the cell membrane was broken up by sonication (Bioruptor). Cellular debris and unbroken cells were removed by centrifugation (12,500 × g for 30 min, 4 °C). Protein concentration was determined using the bicinchoninic acid assay (Thermo). Cell extracts (20 μg) were resolved by 12% sodium dodecyl sulfate-polyacrylamide gel electrophoresis (SDS-PAGE), transferred to PVDF membranes, and probed separately with antibodies for Ac-histone H3, Ac-α-tubulin, histone H3, α-tubulin, HDAC1, HDAC6, HDAC8 and GAPDH. […] Antibody signals were detected using an enhanced chemiluminescence system.

CYP1A2 = target: T10, CYP1A2 (Homo sapiens, UniProt P05177); experiment: CYP450 inhibition assay; format: in vitro ADME; settings: human recombinant enzyme; read-out: IC50 CYP1A2
T10 construct: purchased Reaction Biology Corporation; host or cells: CYP cDNA baculovirus expression systems

hERG = target: T11, hERG (Homo sapiens, UniProt Q12809); experiment: hERG binding competition assay (Predictor hERG Tracer Red); settings: binding competition with fluorescent tracer
T11 construct: purchased
T11 sequence (Q12809 whole entry): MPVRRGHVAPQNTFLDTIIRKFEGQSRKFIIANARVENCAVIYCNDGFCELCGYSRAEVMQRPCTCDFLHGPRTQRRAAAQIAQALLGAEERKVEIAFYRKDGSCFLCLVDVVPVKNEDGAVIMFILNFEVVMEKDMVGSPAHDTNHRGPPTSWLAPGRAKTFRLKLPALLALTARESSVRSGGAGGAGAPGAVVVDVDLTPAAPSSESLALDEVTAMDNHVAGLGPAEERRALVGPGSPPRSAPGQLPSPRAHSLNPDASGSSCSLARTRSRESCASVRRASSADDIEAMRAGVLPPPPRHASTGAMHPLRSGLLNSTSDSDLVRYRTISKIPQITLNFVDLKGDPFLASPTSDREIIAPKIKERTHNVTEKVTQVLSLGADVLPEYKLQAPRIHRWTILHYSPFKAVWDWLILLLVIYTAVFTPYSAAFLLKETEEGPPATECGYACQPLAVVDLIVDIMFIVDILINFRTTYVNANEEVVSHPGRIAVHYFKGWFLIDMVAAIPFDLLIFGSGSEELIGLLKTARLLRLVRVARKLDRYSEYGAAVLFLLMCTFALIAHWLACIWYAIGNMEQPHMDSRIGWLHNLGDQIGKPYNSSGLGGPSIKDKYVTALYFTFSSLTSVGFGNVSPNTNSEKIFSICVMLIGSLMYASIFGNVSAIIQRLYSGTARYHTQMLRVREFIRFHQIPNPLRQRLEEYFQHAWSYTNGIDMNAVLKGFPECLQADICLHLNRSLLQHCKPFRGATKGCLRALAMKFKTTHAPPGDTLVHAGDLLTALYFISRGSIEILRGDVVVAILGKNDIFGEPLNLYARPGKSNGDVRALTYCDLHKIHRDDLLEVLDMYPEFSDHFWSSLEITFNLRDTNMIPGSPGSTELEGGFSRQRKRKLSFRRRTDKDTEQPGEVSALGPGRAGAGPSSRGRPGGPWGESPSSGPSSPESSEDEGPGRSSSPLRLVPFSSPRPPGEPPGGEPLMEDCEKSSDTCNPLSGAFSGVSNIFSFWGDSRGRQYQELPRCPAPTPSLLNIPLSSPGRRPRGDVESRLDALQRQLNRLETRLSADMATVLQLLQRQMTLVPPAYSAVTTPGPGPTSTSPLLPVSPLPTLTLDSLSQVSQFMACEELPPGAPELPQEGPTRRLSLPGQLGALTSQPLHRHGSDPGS

T9 sequence (Q9UM73 19-1620 G1269A): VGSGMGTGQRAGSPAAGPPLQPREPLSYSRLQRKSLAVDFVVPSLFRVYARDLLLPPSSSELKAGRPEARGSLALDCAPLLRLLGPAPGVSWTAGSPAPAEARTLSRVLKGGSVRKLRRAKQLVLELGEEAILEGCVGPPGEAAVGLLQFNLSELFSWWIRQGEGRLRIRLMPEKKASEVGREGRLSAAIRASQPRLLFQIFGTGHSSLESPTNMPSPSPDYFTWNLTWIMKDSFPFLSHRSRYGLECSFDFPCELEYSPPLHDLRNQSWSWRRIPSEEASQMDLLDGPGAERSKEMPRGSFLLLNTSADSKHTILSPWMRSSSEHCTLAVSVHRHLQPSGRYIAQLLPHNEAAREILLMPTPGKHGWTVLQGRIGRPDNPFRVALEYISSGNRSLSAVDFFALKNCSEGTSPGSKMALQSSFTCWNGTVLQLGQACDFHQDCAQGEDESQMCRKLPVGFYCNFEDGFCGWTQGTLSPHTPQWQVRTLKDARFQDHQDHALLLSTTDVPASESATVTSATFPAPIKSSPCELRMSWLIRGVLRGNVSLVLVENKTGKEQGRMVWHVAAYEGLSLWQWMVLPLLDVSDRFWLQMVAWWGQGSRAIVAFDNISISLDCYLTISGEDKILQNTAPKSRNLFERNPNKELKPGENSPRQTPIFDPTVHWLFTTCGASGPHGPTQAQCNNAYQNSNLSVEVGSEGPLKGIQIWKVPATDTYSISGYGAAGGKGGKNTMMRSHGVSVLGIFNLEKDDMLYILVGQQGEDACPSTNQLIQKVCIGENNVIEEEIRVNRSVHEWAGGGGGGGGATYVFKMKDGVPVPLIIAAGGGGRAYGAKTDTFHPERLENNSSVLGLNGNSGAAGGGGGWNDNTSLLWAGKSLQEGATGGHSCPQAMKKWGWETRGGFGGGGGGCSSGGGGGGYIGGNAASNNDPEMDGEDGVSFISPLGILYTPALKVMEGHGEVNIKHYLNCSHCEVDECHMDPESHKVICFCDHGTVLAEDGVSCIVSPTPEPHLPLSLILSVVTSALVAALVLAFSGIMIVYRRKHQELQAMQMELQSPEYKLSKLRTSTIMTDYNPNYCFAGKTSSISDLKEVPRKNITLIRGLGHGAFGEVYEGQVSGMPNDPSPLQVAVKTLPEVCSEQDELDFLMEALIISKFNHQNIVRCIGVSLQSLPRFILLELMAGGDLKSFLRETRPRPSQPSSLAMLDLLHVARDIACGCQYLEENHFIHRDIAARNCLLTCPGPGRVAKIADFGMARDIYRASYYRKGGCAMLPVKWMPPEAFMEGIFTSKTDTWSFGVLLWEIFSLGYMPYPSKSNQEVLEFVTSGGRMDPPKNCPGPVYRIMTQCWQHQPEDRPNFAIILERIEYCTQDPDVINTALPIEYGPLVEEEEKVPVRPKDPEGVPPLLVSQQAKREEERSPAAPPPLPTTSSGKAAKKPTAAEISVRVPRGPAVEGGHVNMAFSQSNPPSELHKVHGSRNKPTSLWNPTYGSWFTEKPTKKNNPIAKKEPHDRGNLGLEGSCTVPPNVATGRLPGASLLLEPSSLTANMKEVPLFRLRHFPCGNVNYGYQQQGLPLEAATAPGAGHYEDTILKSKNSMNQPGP
T6 sequence (Q9UM73 19-1620 C1156Y): as the sequence (Q9UM73 19-1620 G1269A) above, with C1138Y, A1251G counted along it
T4 sequence (P12931 whole entry): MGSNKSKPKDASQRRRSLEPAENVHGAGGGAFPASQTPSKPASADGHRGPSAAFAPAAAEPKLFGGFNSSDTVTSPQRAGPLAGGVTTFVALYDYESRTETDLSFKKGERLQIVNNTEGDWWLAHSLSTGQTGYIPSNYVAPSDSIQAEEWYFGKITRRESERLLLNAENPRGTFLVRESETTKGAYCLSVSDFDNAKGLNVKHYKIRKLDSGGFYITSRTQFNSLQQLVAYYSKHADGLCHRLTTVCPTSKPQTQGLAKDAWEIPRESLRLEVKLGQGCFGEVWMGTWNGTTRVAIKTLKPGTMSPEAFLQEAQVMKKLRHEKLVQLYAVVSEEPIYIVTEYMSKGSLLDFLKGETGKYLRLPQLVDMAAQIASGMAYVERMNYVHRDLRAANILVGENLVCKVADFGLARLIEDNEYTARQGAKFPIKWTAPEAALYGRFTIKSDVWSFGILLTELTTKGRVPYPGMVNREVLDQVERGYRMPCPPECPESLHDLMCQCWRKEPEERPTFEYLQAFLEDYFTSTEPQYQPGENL
T3 sequence (P35968 20-1356): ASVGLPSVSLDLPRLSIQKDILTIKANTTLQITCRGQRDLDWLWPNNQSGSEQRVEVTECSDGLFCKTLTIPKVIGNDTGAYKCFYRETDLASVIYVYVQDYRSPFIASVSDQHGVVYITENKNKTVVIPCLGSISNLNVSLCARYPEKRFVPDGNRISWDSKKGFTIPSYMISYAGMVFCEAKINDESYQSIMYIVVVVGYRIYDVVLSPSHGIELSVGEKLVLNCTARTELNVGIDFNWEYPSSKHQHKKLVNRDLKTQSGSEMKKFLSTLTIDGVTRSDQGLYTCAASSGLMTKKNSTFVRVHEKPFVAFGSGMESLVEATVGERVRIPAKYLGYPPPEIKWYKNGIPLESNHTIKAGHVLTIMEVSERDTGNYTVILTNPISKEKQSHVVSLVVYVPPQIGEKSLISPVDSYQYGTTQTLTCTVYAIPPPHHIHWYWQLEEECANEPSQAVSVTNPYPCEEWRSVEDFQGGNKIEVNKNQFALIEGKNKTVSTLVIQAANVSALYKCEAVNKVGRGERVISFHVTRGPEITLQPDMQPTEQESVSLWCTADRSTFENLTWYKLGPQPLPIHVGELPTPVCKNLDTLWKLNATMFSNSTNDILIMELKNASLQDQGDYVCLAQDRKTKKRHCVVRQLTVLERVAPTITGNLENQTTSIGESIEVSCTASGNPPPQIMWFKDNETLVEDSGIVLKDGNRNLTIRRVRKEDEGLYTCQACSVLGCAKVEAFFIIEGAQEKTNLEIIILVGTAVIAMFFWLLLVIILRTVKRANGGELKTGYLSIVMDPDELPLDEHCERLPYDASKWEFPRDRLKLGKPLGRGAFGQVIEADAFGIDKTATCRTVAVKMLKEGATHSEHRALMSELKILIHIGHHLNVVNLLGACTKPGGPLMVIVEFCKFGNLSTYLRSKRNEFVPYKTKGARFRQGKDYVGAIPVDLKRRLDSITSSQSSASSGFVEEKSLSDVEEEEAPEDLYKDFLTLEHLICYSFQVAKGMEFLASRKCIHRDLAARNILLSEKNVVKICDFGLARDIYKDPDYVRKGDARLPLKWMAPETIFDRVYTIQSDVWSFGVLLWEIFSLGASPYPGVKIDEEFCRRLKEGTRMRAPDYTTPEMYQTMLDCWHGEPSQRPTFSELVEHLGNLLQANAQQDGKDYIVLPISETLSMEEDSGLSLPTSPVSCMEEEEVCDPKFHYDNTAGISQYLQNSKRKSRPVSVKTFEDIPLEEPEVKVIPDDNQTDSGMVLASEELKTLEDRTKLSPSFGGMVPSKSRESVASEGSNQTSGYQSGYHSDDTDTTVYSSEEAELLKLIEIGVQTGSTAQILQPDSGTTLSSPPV
T1 sequence (Q9UM73 19-1620): as the sequence (Q9UM73 19-1620 G1269A) above, with A1251G counted along it
T7 sequence (Q9UM73 19-1620 F1174L): as the sequence (Q9UM73 19-1620 G1269A) above, with F1156L, A1251G counted along it
T8 sequence (Q9UM73 19-1620 G1202R): as the sequence (Q9UM73 19-1620 G1269A) above, with G1184R, A1251G counted along it

CC(C)NC(=O)C1CCC(n2c(=NC(=O)c3ccccc3)[nH]c3cc(C=CC(=O)NO)ccc32)CC1 [Compound 3b, (E)-N-(5-((E)-3-(Hydroxyamino)-3-oxoprop-1-en-1-yl)-1-((1S,4S)-4-(isopropylcarbamoyl)cyclohexyl)-1H-benzo[d]imidazol-2(3H)-ylidene)benzamide]
IC50 (ALK): 16 nM | IC50 (HDAC6): 1030 nM | IC50 (U87MG): 620 ± 100 nM | IC50 (VEGFR2): > 10000 nM | IC50 (c-Src): 3380 nM | IC50 (JAK2): > 10000 nM | IC50 (ALK C1156Y): 9.7 nM | IC50 (ALK F1174L): 59 nM | IC50 (ALK G1202R): 51 nM | IC50 (ALK G1269A): 50 nM | acetylation level of α-tubulin [1]: obviously elevated | IC50 (CYP1A2): 12700 nM | IC50 (hERG): > 10000 nM | IC50 hERG (hERG): no inhibitory affect
